Measurements reported in ChEMBL document CHEMBL4665635, “Design and synthesis of various quinizarin derivatives as potential anticancer agents in acute T lymphoblastic leukemia” (Bioorg Med Chem, 2019).
Structures can show the parent of a compound that is named as a salt. The source made the active and inactive calls. No cut-off for these calls is given here.

Columns and labels:
[1] = tested on: HL-60; assay: Cytotoxicity against human HL60 cells assessed as inhibition of cell proliferation after 48 hrs by MTT assay; type: functional, cell-based; settings: HL-60, 48 h
[2] = tested on: HEK293; assay: Cytotoxicity against human HEK293 cells assessed as inhibition of cell proliferation after 48 hrs by MTT assay; type: cell-based; settings: HEK293, 48 h
[3] = tested on: K562; assay: Cytotoxicity against human K562 cells assessed as inhibition of cell proliferation after 48 hrs by MTT assay; type: functional, cell-based; settings: K562, 48 h
[4] = Solubility in water by spectrophotometry; type: physicochemical
[5] = tested on: CA46; assay: Cytotoxicity against human CA46 cells assessed as inhibition of cell proliferation after 48 hrs by MTT assay; type: functional, cell-based; settings: CA46, 48 h
[6] = tested on: Jurkat; assay: Induction of apoptosis in human Jurkat cells assessed as activation of PARP cleavage at 2 to 4 uM after 24 hrs by western blot analysis; type: functional, cell-based; settings: dose microM 2-4, time 24.0 hrs
[7] = tested on: MOLT-4; assay: Induction of ROS generation in human MOLT-4 cells at 2 uM incubated for 12 hrs by flow cytometric analysis relative to control; type: functional
[8] = tested on: MOLT-4; assay: Cytotoxicity against human MOLT4 cells assessed as inhibition of cell proliferation after 48 hrs by MTT assay; type: functional, cell-based; settings: MOLT-4, 48 h
[9] = tested on: Jurkat; assay: Induction of apoptosis in human Jurkat cells assessed as decrease in Bcl-2 protein expression at 2 to 4 uM after 24 hrs by Western blot analysis; type: functional, cell-based; settings: dose microM 2-4, time 24.0 hrs
[10] = tested on: Jurkat; assay: Induction of apoptosis in human Jurkat cells assessed as caspase 3 activation at 2 to 4 uM incubated for 24 hrs by Western blot analysis; type: functional, cell-based; settings: dose microM 2-4, time 24.0 hrs
[11] = tested on: NB-4; assay: Cytotoxicity against human NB4 cells assessed as inhibition of cell proliferation after 48 hrs by MTT assay; type: functional, cell-based; settings: NB-4, 48 h
[12] = tested on: MOLT-4; assay: Induction of apoptosis in human MOLT-4 cells assessed as total apoptotic cells at 4 uM measured after 24 hrs by Annexin V-APC/7-AAD staining based flow cytometric analysis relative to control; type: functional
[13] = tested on: MOLT-4; assay: Induction of apoptosis in human MOLT-4 cells assessed as caspase 9 activation at 2 to 4 uM incubated for 24 hrs by Western blot analysis; type: functional, cell-based; settings: dose microM 2-4, time 24.0 hrs
[14] = tested on: MOLT-4; assay: Cell cycle arrest in human MOLT-4 cells assessed as decrease in cell population at S phase at 2 to 4 uM after 24 hrs by propidium iodide/RNase staining based flow cytometric analysis; type: functional; settings: dose microM 2-4, time 24.0 hrs
[15] = tested on: Jurkat; assay: Induction of apoptosis in human Jurkat cells assessed as Notch1 degradation at 2 to 4 uM after 24 hrs by Western blot analysis; type: functional, cell-based; settings: dose microM 2-4, time 24.0 hrs
[16] = tested on: Jurkat; assay: Induction of ROS generation in human Jurkat cells at 2 uM incubated for 12 hrs by flow cytometric analysis relative to control; type: functional
[17] = tested on: Jurkat; assay: Induction of ROS generation in human Jurkat cells at 1 uM incubated for 12 hrs by flow cytometric analysis relative to control; type: functional
[18] = tested on: HEK293; assay: Induction of ROS generation in HEK293 cells at 2 uM incubated for 12 hrs by flow cytometric analysis relative to control; type: cell-based; settings: human, hek293, 12 h
[19] = tested on: MOLT-4; assay: Induction of apoptosis in human MOLT-4 cells assessed as caspase 3 activation at 2 to 4 uM incubated for 24 hrs by Western blot analysis; type: functional, cell-based; settings: dose microM 2-4, time 24.0 hrs
[20] = tested on: Jurkat; assay: Induction of apoptosis in human Jurkat cells assessed as caspase 9 activation at 2 to 4 uM incubated for 24 hrs by Western blot analysis; type: functional, cell-based; settings: dose microM 2-4, time 24.0 hrs
[21] = tested on: Jurkat; assay: Induction of apoptosis in human Jurkat cells assessed as total apoptotic cells at 2 uM measured after 24 hrs by Annexin V-APC/7-AAD staining based flow cytometric analysis relative to control; type: functional
[22] = tested on: Jurkat; assay: Induction of apoptosis in human Jurkat cells assessed as total apoptotic cells at 4 uM measured after 24 hrs by Annexin V-APC/7-AAD staining based flow cytometric analysis relative to control; type: functional
[23] = tested on: HEK293; assay: Induction of ROS generation in HEK293 cells at 1 uM incubated for 12 hrs by flow cytometric analysis relative to control; type: cell-based; settings: human, hek293, 12 h
[24] = tested on: MOLT-4; assay: Induction of apoptosis in human MOLT-4 cells assessed as increase in cleaved caspase-3 levels at 4 uM after 24 hrs by Alexafluor-488 goat anti-rabbitIgG staining based flow cytometric analysis relative to control; type: functional
[25] = tested on: Jurkat; assay: Induction of apoptosis in human Jurkat cells assessed as increase in cleaved caspase-3 levels at 4 uM after 24 hrs by Alexafluor-488 goat anti-rabbitIgG staining based flow cytometric analysis relative to control; type: functional
[26] = tested on: MOLT-4; assay: Induction of ROS generation in human MOLT-4 cells at 1 uM incubated for 12 hrs by flow cytometric analysis relative to control; type: functional
[27] = tested on: MOLT-4; assay: Induction of apoptosis in human MOLT-4 cells assessed as c-myc degradation at 2 to 4 uM after 24 hrs by Western blot analysis; type: functional, cell-based; settings: dose microM 2-4, time 24.0 hrs
[28] = tested on: Jurkat; assay: Induction of apoptosis in human Jurkat cells assessed as c-myc degradation at 2 to 4 uM after 24 hrs by Western blot analysis; type: functional, cell-based; settings: dose microM 2-4, time 24.0 hrs
[29] = tested on: Jurkat; assay: Cytotoxicity against human Jurkat cells assessed as inhibition of cell proliferation after 48 hrs by MTT assay; type: functional, cell-based
[30] = tested on: MOLT-4; assay: Induction of apoptosis in human MOLT-4 cells assessed as total apoptotic cells at 2 uM measured after 24 hrs by Annexin V-APC/7-AAD staining based flow cytometric analysis relative to control; type: functional
[31] = tested on: MOLT-4; assay: Induction of apoptosis in human MOLT-4 cells assessed as decrease in Bcl-2 protein expression at 2 to 4 uM after 24 hrs by Western blot analysis; type: functional, cell-based; settings: dose microM 2-4, time 24.0 hrs
[32] = tested on: MOLT-4; assay: Induction of apoptosis in human MOLT-4 cells assessed as activation of PARP cleavage at 2 to 4 uM after 24 hrs by western blot analysis; type: functional, cell-based; settings: dose microM 2-4, time 24.0 hrs
[33] = tested on: Jurkat; assay: Cell cycle arrest in human Jurkat cells assessed as increase in cell population at G0/G1 phase at 2 to 4 uM after 24 hrs by propidium iodide/RNase staining based flow cytometric analysis; type: functional; settings: dose microM 2-4, time 24.0 hrs
[34] = tested on: MOLT-4; assay: Cell cycle arrest in human MOLT-4 cells assessed as increase in cell population at G0/G1 phase at 2 to 4 uM after 24 hrs by propidium iodide/RNase staining based flow cytometric analysis; type: functional; settings: dose microM 2-4, time 24.0 hrs
[35] = tested on: NALM-6; assay: Cytotoxicity against human NALM6 cells assessed as inhibition of cell proliferation after 48 hrs by MTT assay; type: functional, cell-based; settings: NALM-6, 48 h
[36] = tested on: MOLT-4; assay: Induction of apoptosis in human MOLT-4 cells assessed as Notch1 degradation at 2 to 4 uM after 24 hrs by Western blot analysis; type: functional, cell-based; settings: dose microM 2-4, time 24.0 hrs
[37] = tested on: Jurkat; assay: Cell cycle arrest in human Jurkat cells assessed as decrease in cell population at S phase at 2 to 4 uM after 24 hrs by propidium iodide/RNase staining based flow cytometric analysis; type: functional; settings: dose microM 2-4, time 24.0 hrs

**Q.** Which results are given for CCCCCCCC[P+](CCCCCCCC)(CCCCCCCC)Cc1ccc(COc2ccc(OCc3ccc(CSC(=N)N)cc3)c3c2C(=O)c2ccccc2C3=O)cc1?
**A.** IC50 [1]: 5.16 µM; IC50 [2]: 6.66 µM; IC50 [3]: 8.04 µM

**Q.** With CCCCCCCC[N+](C)(CCCCCCCC)Cc1cc(O)c2c(c1)C(=O)c1cccc(O)c1C2=O as the molecule, how does the IC50 [1] read?
**A.** 1.11 µM

**Q.** And the IC50 [2]?
**A.** 2.2 µM

**Q.** And the IC50 [3]?
**A.** 2.78 µM

**Q.** For CCCCCCCC[N+](C)(CCCCCCCC)Cc1cc(O)c2c(c1)Cc1cccc(O)c1C2=O, which IC50 [1] is on record?
**A.** > 40 µM

**Q.** What about the IC50 [2] of the same molecule?
**A.** > 40 µM

**Q.** And the IC50 [3]?
**A.** > 40 µM

**Q.** With CCCCCCCC[P+](CCCCCCCC)(CCCCCCCC)Cc1ccc(COc2ccc(OCc3ccc(CBr)cc3)c3c2C(=O)c2ccccc2C3=O)cc1 as the molecule, how does the IC50 [1] read?
**A.** 0.9 µM

**Q.** What about the IC50 [2] of the same molecule?
**A.** 2.17 µM

**Q.** And the IC50 [3]?
**A.** 1.24 µM

**Q.** Which results are given for CCCCCCCC[N+](C)(CCCCCCCC)Cc1ccc(COc2ccc(OCc3ccc(C[N+](C)(CCCCCCCC)CCCCCCCC)cc3)c3c2C(=O)c2ccccc2C3=O)cc1?
**A.** IC50 [1]: 3.49 µM; IC50 [2]: 2.99 µM; IC50 [3]: 6.78 µM

**Q.** For COc1cccc2c1C(=O)c1c(O)c3c(c(O)c1C2=O)C[C@@](O)(C(=O)CO)C[C@@H]3O[C@H]1C[C@H](N)[C@H](O)[C@H](C)O1 [DOXORUBICIN HYDROCHLORIDE], which IC50 [1] is on record?
**A.** 0.14 µM

**Q.** And the IC50 [2]?
**A.** 0.37 µM

**Q.** What about the IC50 [3] of the same molecule?
**A.** 0.63 µM

**Q.** What does the source list for CCCCCCCC[N+](C)(CCCCCCCC)Cc1ccc(COc2ccc(OCc3ccc(C[N+](CCO)(CCO)CCO)cc3)c3c2C(=O)c2ccccc2C3=O)cc1.[Br-].[Br-]?
**A.** IC50 [1]: 7.89 µM; IC50 [2]: 9.43 µM; IC50 [3]: 10.9 µM; solubility [4]: 28200 µg/mL

**Q.** For CCCCCCCC[N+](C)(CCCCCCCC)Cc1ccc(COc2ccc(OCc3ccc(CBr)cc3)c3c2C(=O)c2ccccc2C3=O)cc1.[Br-], which IC50 [5] is on record?
**A.** 3.51 µM

**Q.** What about the Activity [6] of the same molecule?
**A.** Active

**Q.** What about the IC50 [1] of the same molecule?
**A.** 1.4 µM

**Q.** And the Activity [7]?
**A.** 73.97%

**Q.** And the IC50 [8]?
**A.** 2.61 µM

**Q.** And the Activity [9]?
**A.** Dose-dependent effect

**Q.** What about the Activity [10] of the same molecule?
**A.** Active

**Q.** And the IC50 [11]?
**A.** 2.4 µM

**Q.** And the Activity [12]?
**A.** 39.67%

**Q.** What about the Activity [13] of the same molecule?
**A.** Active

**Q.** And the Activity [14]?
**A.** Active

**Q.** And the Activity [15]?
**A.** Dose-dependent effect

**Q.** What about the Activity [16] of the same molecule?
**A.** 38.1%

**Q.** What about the Activity [17] of the same molecule?
**A.** 18.63%

**Q.** And the Activity [18]?
**A.** 62.23%

**Q.** What about the IC50 [2] of the same molecule?
**A.** 2.44 µM

**Q.** And the IC50 [3]?
**A.** 2.31 µM

**Q.** And the Activity [19]?
**A.** Active

**Q.** And the Activity [20]?
**A.** Active

**Q.** And the Activity [21]?
**A.** 25.57%

**Q.** And the Activity [22]?
**A.** 48.96%

**Q.** And the Activity [23]?
**A.** 2.78%

**Q.** What about the Activity [24] of the same molecule?
**A.** 33%

**Q.** And the Activity [25]?
**A.** 43.4%

**Q.** And the Activity [26]?
**A.** 22.2%

**Q.** And the Activity [27]?
**A.** Dose-dependent effect

**Q.** And the solubility [4]?
**A.** < 10 µg/mL

**Q.** And the Activity [28]?
**A.** Dose-dependent effect

**Q.** What about the IC50 [29] of the same molecule?
**A.** 2.8 µM

**Q.** What about the Activity [30] of the same molecule?
**A.** 22.76%

**Q.** And the Activity [31]?
**A.** Dose-dependent effect

**Q.** And the Activity [32]?
**A.** Active

**Q.** What about the Activity [33] of the same molecule?
**A.** Active

**Q.** And the Activity [34]?
**A.** Active

**Q.** And the IC50 [35]?
**A.** 1.24 µM

**Q.** And the Activity [36]?
**A.** Dose-dependent effect

**Q.** What about the Activity [37] of the same molecule?
**A.** Active

**Q.** With Br.Br.N=C(N)SCc1ccc(COc2ccc(OCc3ccc(CSC(=N)N)cc3)c3c2C(=O)c2ccccc2C3=O)cc1 as the molecule, how does the IC50 [1] read?
**A.** 3.35 µM

**Q.** What about the IC50 [2] of the same molecule?
**A.** 3.19 µM

**Q.** And the IC50 [3]?
**A.** 1.81 µM

**Q.** What about the solubility [4] of the same molecule?
**A.** 59.3 µg/mL

**Q.** With O=C1c2ccccc2C(=O)c2c(OCc3ccc(CBr)cc3)ccc(OCc3ccc(CBr)cc3)c21 as the molecule, how does the IC50 [1] read?
**A.** > 40 µM

**Q.** And the IC50 [2]?
**A.** > 40 µM

**Q.** What about the IC50 [3] of the same molecule?
**A.** > 40 µM
